Patent US9649314B2, “Pyrimido[4,5-b]quinoline-4,5(3H,10H)-diones” (NOVARTIS AG, priority 2012, dated 2017)
One block for each molecule: values may come before it.

Columns and labels:
CFTR-Y122X = CFTR-Y122X assay (dual reporter isogenic Hek293 cell lines, Renilla luminescence readthrough); assay type: cell-based; details: Homo sapiens, HEK293; for Emax / AC50: nonsense mutation suppression, 24 h incubation; for Emax: 100% = 14 mM paromomycin, tested up to 100 μM, read-out: Amax [%]
How it was run: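 Stable isogenic HEK dual-reporter line (eGFP–CFTR Y122X TGA PTC–myc–Renilla); 2000 cells/well, 24 h, then compound (10 μM; tested up to 100 μM) 24 h at 37 °C. Renilla luminescence normalised to neutral (0%) and 14 mM paromomycin (100%); wildtype construct counterscreen.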

[1] = system: human coagulation factor F9 containing the R29X (TAG) mutation; assay: F9-R29X assay (full length F9 expression in isogenic HekR4 cells, imaging / F9 ELISA); assay type: cell-based; details: nonsense mutation suppression; for AC50: Homo sapiens
Experimental: Activity of compounds of the present invention was examined using reporter constructs of full length human coagulation factor F9 containing the R29X (TAG) mutation known from hemophilia B patients (“F9-R29X assay”). Full length F9 cDNA was stably expressed in the above isogenic HekR4 cell background. Stop codon readthrough and full length F9 expression was determined with a miniaturized confocal high throughput imaging assay. In paraformaldehyde fixed and permeabilized cells (10 uM compound; 24 h incubation) F9 expression was identified with a commercial F9 antibody raised against the F9 C-terminus. […] F9 staining intensity (Alexa-Fluor 488) and Draq5 nuclear staining served as readout for data calculation. Percent activity was measured in comparison to high (active control) and low controls (DMSO solvent).

α-L-iduronidase W402X = assay: α-L-iduronidase-W402X assay (restored enzyme activity in cell lysates, 4-MU iduronide substrate); assay type: cell-based, human; details: 48 h treatment; for W402X Amax [%]: paromomycin 14 mM as reference control; for AC50: Homo sapiens
Experimental: (§1) Activity of compounds of the present invention was examined using a functional readout for two clinically common stop codon (TAG) mutants (Q70X, W402X) of the lysosomal enzyme α-L-iduronidase. Lack of α-L-iduronidase expression in such stop codon patients leads to the lysosomal storage disorder Mucopolysaccharidosis I (MPSI) also called Hurler syndrome.
(§2) Reporter constructs analogous to constructs above were expressed. In the assay, 2500 cells/well were treated for 48 h with compound, washed with PBS and lysed (0.4 M Sodiumformate, 0.1% NaN3, 0.9% NaCl, 0.2% Triton, pH 3.5). Restored α-L-iduronidase activity in cell lysates was measured with the fluoresecent 4-MU iduronide substrate (4 Methylumbelliferyl α-L-iduronide) after 45 min incubation. Again, paromomycin was used as reference control (14 mM).

α-L-iduronidase Q70X = assay: α-L-iduronidase-Q70X assay (restored enzyme activity in cell lysates, 4-MU iduronide substrate); assay type: cell-based, human; details: 48 h treatment; for Q70X Amax [%]: paromomycin 14 mM as reference control; for AC50: Homo sapiens
Experimental: as §1, §2

Structure (SMILES): Cn1c2ccccc2c(=O)c2c(=O)n(C3CCCCC3)c(-c3cccs3)nc21 [Example 2.17, 3-cyclohexyl-10-methyl-2-(thiophen-2-yl)pyrimido[4,5-b]quinoline-4,5(3H,10H)-dione]
Emax (CFTR-Y122X): 293%
AC50 (CFTR-Y122X): 5.8 µM
AC50 [1]: 5.4 µM
Amax [%] [1]: 157%
W402X Amax [%] (α-L-iduronidase W402X): 211%
AC50 (α-L-iduronidase W402X): 2.9 µM
Q70X Amax [%] (α-L-iduronidase Q70X): 265%
AC50 (α-L-iduronidase Q70X): 2.1 µM

Structure (SMILES): Cn1c2ccccc2c(=O)c2c(=O)n(C3CCCCC3)c(-c3ccco3)nc21 [Example 2.20, 3-cyclohexyl-2-(furan-2-yl)-10-methylpyrimido[4,5-b]quinoline-4,5(3H,10H)-dione]
Emax (CFTR-Y122X): 201%
AC50 (CFTR-Y122X): 2.3 µM
AC50 [1]: 5.5 µM
Amax [%] [1]: 158%
W402X Amax [%] (α-L-iduronidase W402X): 189%
AC50 (α-L-iduronidase W402X): 0.9 µM
Q70X Amax [%] (α-L-iduronidase Q70X): 386%
AC50 (α-L-iduronidase Q70X): 1 µM

Structure (SMILES): CCc1nc2c(c(=O)c3ccccc3n2C)c(=O)n1C1CCCCCC1 [Example 2.31, 3-cycloheptyl-2-ethyl-10-methylpyrimido[4,5-b]quinoline-4,5(3H,10H)-dione]
Emax (CFTR-Y122X): 67%
AC50 (CFTR-Y122X): 2.5 µM
AC50 [1]: 1.9 µM
Amax [%] [1]: 167%
W402X Amax [%] (α-L-iduronidase W402X): 300%
AC50 (α-L-iduronidase W402X): 2.9 µM
Q70X Amax [%] (α-L-iduronidase Q70X): 438%
AC50 (α-L-iduronidase Q70X): 1.7 µM

Structure (SMILES): Cn1c2ccccc2c(=O)c2c(=O)n(C3CCCCCC3)c(-c3cccc([N+](=O)[O-])c3)nc21 [Example 2.46, 3-cycloheptyl-10-methyl-2-(3-nitrophenyl)pyrimido[4,5-b]quinoline-4,5(3H,10H)-dione]
Emax (CFTR-Y122X): 12%
AC50 (CFTR-Y122X): 4.2 µM

Structure (SMILES): COc1ccc(-c2nc3c(c(=O)c4ccccc4n3C)c(=O)n2C2CCCCCC2)cc1 [Example 2.47, 3-cycloheptyl-2-(4-methoxyphenyl)-10-methylpyrimido[4,5-b]quinoline-4,5(3H,10H)-dione]
Emax (CFTR-Y122X): 10%
AC50 (CFTR-Y122X): 3.1 µM

Structure (SMILES): Cc1ccccc1-c1nc2c(c(=O)c3ccccc3n2C)c(=O)n1C1CCCCCC1 [Example 2.48, 3-cycloheptyl-10-methyl-2-(o-tolyl)pyrimido[4,5-b]quinoline-4,5(3H,10H)-dione]
Emax at 100 µM (CFTR-Y122X; measured at 100 μM compound concentration (footnote d), read-out: Amax [%]: % nonsense mutation suppression relative to paromomycin reference activity): 7%

Structure (SMILES): Cn1c2ccccc2c(=O)c2c(=O)n(C3CCCC3)c(-c3ccco3)nc21 [Example 2.49, 3-cyclopentyl-2-(furan-2-yl)-10-methylpyrimido[4,5-b]quinoline-4,5(3H,10H)-dione]
Emax (CFTR-Y122X): 7%
AC50 (CFTR-Y122X): 1.8 µM

Structure (SMILES): Cn1c2ccccc2c(=O)c2c(=O)n(C3CCCCCC3)c(-c3cccc(Br)c3)nc21 [Example 2.50, 2-(3-bromophenyl)-3-cycloheptyl-10-methylpyrimido[4,5-b]quinoline-4,5(3H,10H)-dione]
Emax (CFTR-Y122X): 6%
AC50 (CFTR-Y122X): 4.4 µM

Structure (SMILES): CC(C)c1nc2c(c(=O)c3cccc(Cl)c3n2C)c(=O)n1C1CCCC1 [Example 2.51, 9-chloro-3-cyclopentyl-2-isopropyl-10-methylpyrimido[4,5-b]quinoline-4,5(3H,10H)-dione]
Emax at 25 µM (CFTR-Y122X; measured at 25 μM compound concentration (footnote a), read-out: Amax [%]: % nonsense mutation suppression relative to paromomycin reference activity): 6%

Structure (SMILES): CCSc1nc2[nH]c3ccccc3c(=O)c2c(=O)n1-c1ccccc1 [Example 3.1, 2-(ethylthio)-3-phenylpyrimido[4,5-b]quinoline-4,5(3H,10H)-dione]
Emax (CFTR-Y122X): 65%
AC50 (CFTR-Y122X): 5.8 µM

Structure (SMILES): CN(C)c1nc2[nH]c3ccccc3c(=O)c2c(=O)n1-c1ccccc1 [Example 3.2, 2-(dimethylamino)-3-phenylpyrimido[4,5-b]quinoline-4,5(3H,10H)-dione]
Emax (CFTR-Y122X): 294%
AC50 (CFTR-Y122X): 11.6 µM

Structure (SMILES): CN(C)c1nc2c(c(=O)c3ccccc3n2C)c(=O)n1-c1ccccc1 [Example 3.3, 2-(dimethylamino)-10-methyl-3-phenylpyrimido[4,5-b]quinoline-4,5(3H,10H)-dione]
Emax (CFTR-Y122X): 18%
AC50 (CFTR-Y122X): 3.5 µM

EC50 (CFTR-Y122X; clone pursued for HTS assay development, read-out: EC50 (readthrough response of the selected clone)): 1500 µM
Structure (SMILES): NC[C@@H]1O[C@H](O[C@H]2[C@@H](O)[C@H](O[C@@H]3[C@@H](O)[C@H](N)C[C@H](N)[C@H]3O[C@H]3O[C@H](CO)[C@@H](O)[C@H](O)[C@H]3N)O[C@@H]2CO)[C@H](N)[C@@H](O)[C@@H]1O [paromomycin, reference compound]
